Where two headings read alike, the source gives them in different places.
What was measured:
[1] = Plasma apelin concentration in HFD mice (Example 3); format: in vivo
Method: Plasma fatty acids (FM) and TGs measured by colorimetric technique with the Wako NEFA kit (Wako Chemicals) and the PAP 150 Kit (bioMerieux), respectively, as well as plasma leptin, adiponectin (Quantikine; R&D Systems), and apelin (Phoenix Pharmaceuticals, Inc.), were determined in the fed state at the end of the treatment. Insulinemia (Mercodia, Uppsala, Sweden) and glycemia measured with a glucometer (Accu-check; Roche Diagnostics) were determined in the fasted state on blood from the tail vein.

[2] = system: Myf5; settings: for Myf5 marker quantification (mRNA), Mean: apelin 0.1 μmole/kg/day ip, 28 days
Method: (§1) Mice were handled in accordance with the principles and guidelines established by the National Institute of Medical Research (INSERM). C57B16/J wild type mice were obtained from Harlan (Gannat, France). CMV-KO apelin mice were obtained from Genoway (Lyon, France). Mice were housed conventionally in a constant temperature (20-22° C.) and humidity (50-60%) animal room, with a 12/12 h light/dark cycle (lights on at 8:00 am) and free access to food and water. The mice were fed a chow diet from weaning until 10-week-old and then either maintained on a chow diet (Research Diet, NJ).
(§2) Apelin treatment was processing to mice from 31 weeks old to 35 weeks old. Mice were daily injected with intraperitoneal injection of apelin (0.1 μmole/kg/day) as previously described (Higuchi et al 2005; Yue et al 2010) for 28 days. Age-matched control mice were PBS-injected during the same period. All mice were sacrificed 24 h after the last apelin ip injection in a fed state.
(§3) Total RNAs ([…]) were isolated from muscles using GeneJET RNA Purification Kit (Fermentas, USA). Total RNAs were reverse transcribed using random hexamers and Superscript 11 reverse transcriptase (Invitrogen, UK). Real time PCR was performed as previously described (Boucher et al. 2005).

[3] = system: myogenin; settings: for myogenin marker quantification (mRNA), Mean: apelin 0.1 μmole/kg/day ip, 28 days
Method: as §1, §2, §3

[4] = system: MyoD; settings: for MyoD marker quantification (mRNA), Mean: apelin 0.1 μmole/kg/day ip, 28 days
Method: as §1, §2, §3

[5] = system: Myostatin; settings: for Myostatin marker quantification (mRNA), Mean: apelin 0.1 μmole/kg/day ip, 28 days
Method: as §1, §2, §3

[6] = system: mtDNA; experiment: Mitochondrial DNA analysis in soleus muscle (COX1 to cyclophilin A); format: in vivo; settings: HFD mice
Method: Total DNA was extracted from soleus muscle using a commercial kit (DNeasy; QIAGEN). The content of mitochondrial (mt)DNA was calculated using real-time quantitative PCR by measuring the threshold cycle ratio of a mitochondrial encoded gene (COX1) and a nuclear-encoded gene (cyclophilin A) as previously described (15).

[7] = system: PGC1-β; settings: soleus muscle; HFD mice; chronic apelin treatment
Method: (§4) Mice were handled in accordance with the principles and guidelines established by INSERM. C57B16/J wild-type (WT) mice were obtained from Harlah (Gannat, France). […] Moris J. Birnbaum (Howard Hughes Medical Institute, University of Pennsylvania, Philadelphia, Pa.). Apelin-deficient (apelin−/−) mice were generated as described previously (10) and backcrossed to C57B16/J mice >10 times. Mice were housed conventionally in a constant temperature (20-22° C.) and humidity (50-60%) animal room, with a 12/12 h light/dark cycle (lights on at 7:00 a.m.) and free access to food and water. The C57B16/J and AMPK-DN mice were fed an ND from weaning until aged 10 weeks and then either maintained on ND (control group) or fed an HFD containing 20% protein, 35% carbohydrate, and 45% fat (Research Diets, New Brunswick, N.J.). Apelin treatment began after the onset of insulin resistance in males aged 23 weeks. Mice were injected daily with apelin-13 (Phoenix Biotech) at […] i.p. as previously described (7) for 28 days. Age-matched control mice were PBS injected during the same period. Standard mice were also treated with a specific APJ receptor antagonist (F13A) (Phoenix Biotech) (11) at 0.2 μmol/kg/day during 28 days or with the combination of apelin and F13A. All mice were killed 24 h after the last apelin injection in a fed state.
(§5) Total RNAs (1 μg) were isolated from muscle using RNA STAT (AMS Technology, Lutterworth, U.K.) and were reverse transcribed using random hexamers and Superscript II reverse transcriptase (Invitrogen, Paisley, U.K.). Real time PCR was performed as previously described (1). Analysis of the 18S ribosomal RNA was performed using the ribosomal RNA control TaqMan Assay Kit (Applied Biosystems) to normalize gene expression.

[8] = system: mitochondrial transcription factor A (TFAM); settings: soleus muscle; HFD mice; chronic apelin treatment
Method: as §4, §5

[9] = system: PGC1-α; settings: soleus muscle; HFD mice; chronic apelin treatment
Method: as §4, §5

[10] = system: nuclear respiratory factor 1 (NRF1); settings: soleus muscle; HFD mice; chronic apelin treatment
Method: as §4, §5

[11] = system: AMPK; settings: muscle of insulin-resistant mice
Method: as §4
(§6) Membranes were probed with β-actin or AMPK or ACC antibodies for total proteins.

[12] = system: mitochondrial complexes; settings: muscle of HFD mice; chronic apelin treatment
Method: as §4, §6

[13] = system: ACC; settings: muscle of insulin-resistant mice
Method: as §4, §6

[14] = system: AMPK; settings: muscle of HFD AMPK-DN apelin-treated mice
Method: as §4

[15] = system: mitochondria of soleus muscle; settings: HFD mice
Method: as §4

[16] = system: soleus muscle
Method: as §4

[17] = system: muscle of insulin-resistant mice; settings: HFD mice; chronic apelin treatment 28 days
Method: as §4

[18] = system: citrate synthase; settings: muscle homogenates; HFD mice; n=7-9; P<0.001 vs control
Method: as §4

[19] = system: Malonyl-CoA; settings: soleus muscle of insulin-resistant mice
Method: as §4

[20] = Plasma apelin concentration after ip bolus of apelin (Example 1); format: in vivo, mice; settings: bolus of ip apelin 0.1 μmole/kg; 10 min after injection
[21] = quadriceps muscles of moderate aged-mice, 28-days treatment
[22] = soleus muscle, HFD mice, chronic apelin treatment

CSCC[C@H](NC(=O)[C@@H]1CCCN1C(=O)CNC(=O)[C@H](CCCCN)NC(=O)[C@H](Cc1cnc[nH]1)NC(=O)[C@H](CO)NC(=O)[C@H](CC(C)C)NC(=O)[C@H](CCCNC(=N)N)NC(=O)[C@@H]1CCCN1C(=O)[C@H](CCCNC(=N)N)NC(=O)[C@@H](N)CCC(N)=O)C(=O)N1CCC[C@H]1C(=O)N[C@@H](Cc1ccccc1)C(=O)O [apelin, apelin-13]
Plasma apelin concentrations, increase ([1]; HFD mice, bolus of apelin 0.1 μmol/kg i.p., 10 min after injection): > 2.4 fold | Plasma apelin concentrations, apelin-treated vs PBS-treated mice ([1]; at the end of the 28-day treatment): not different | level at 10 min ([1]; mouse, in vivo, ip, 0.1 umol/kg, HFD mice, bolus of apelin 0.1 μmol/kg i.p., 10 min after injection, n=5): 4.12 ± 0.96 ng/mL | Myf5 marker quantification (mRNA), Mean ([2]; EDL muscle): 1.200 | Myf5 marker quantification (mRNA), Mean ([2]; Gas muscle): 5.340 | Myf5 marker quantification (mRNA), Mean ([2]; Quad muscle): 5.820 | Myf 5 expression, change in words (FIGS. 1A and B) [2, 21]: increased | myogenin marker quantification (mRNA), Mean ([3]; EDL muscle): 14.280 | myogenin marker quantification (mRNA), Mean ([3]; Gas muscle): 23.360 | myogenin marker quantification (mRNA), Mean ([3]; Quad muscle): 35.060 | Myogenin expression, change in words (FIGS. 1A and B) [3, 21]: increased | MyoD marker quantification (mRNA), Mean ([4]; EDL muscle): 142.520 | MyoD marker quantification (mRNA), Mean ([4]; Gas muscle): 222.300 | MyoD marker quantification (mRNA), Mean ([4]; Quad muscle): 328.160 | MyoD expression, change in words (FIGS. 1A and B) [4, 21]: increased | Myostatin marker quantification (mRNA), Mean ([5]; EDL muscle): 114.660 | Myostatin marker quantification (mRNA), Mean ([5]; Gas muscle): 1034.000 | Myostatin marker quantification (mRNA), Mean ([5]; Quad muscle): 244.300 | myostatin expression, change in words (FIGS. 1A and B) [5, 21]: decrease | mtDNA-to-nuclear DNA ratio vs PBS-treated mice (FIG. 5D) [6]: significantly higher | expression of PGC1-β (FIG. 5C) [7]: not modified | expression of TFAM [8]: upregulated | Expression of PGC1-α (FIG. 5C) [9]: significantly increased | expression of NRF1 [10]: upregulated | AMPK phosphorylation (FIG. 6A) [11]: significantly increased | Protein expression of complex II, III, and V (FIG. 5B) [12]: significantly increased | ACC phosphorylation (FIG. 6A) [13]: significantly increased | apelin-increased FAO in HFD AMPK-DN mice vs HFD WT (FIG. 6C) [14]: completely blunted | apelin-increased mitochondrial biogenesis in HFD AMPK-DN mice vs HFD WT (FIG. 6D) [14]: completely blunted | overexpression of PGC1-α, TFAM, and NRF1 in HFD AMPK-DN mice (FIG. 6E) [14]: reduced | alterations of mitochondria ultrastructure in IMF and SS mitochondria (FIG. 5E) [15]: Fewer adverse alterations | density of intramyofibrillar (IMF) mitochondria (FIG. 5E) [15]: significantly increased | succinate and adenylate-driven respiration (State 3) ([15]; permeabilized soleus fibers): significantly higher | succinate-driven mitochondrial respiration (complex II) vs control (FIG. 5A) ([15]; permeabilized soleus fibers): significantly higher | glutamate/malate-driven mitochondrial respiration (complex I), apelin- vs PBS-treated ([15]; permeabilized soleus fibers, data not shown): No difference | insulin-stimulated glucose uptake vs PBS-treated mice (FIG. 7B) ([16]; 100 nmol/L insulin, HFD mice): significantly increased | rate of palmitate incorporation into TG (FIG. 4B) ([16]; HFD mice, chronic apelin treatment 28 days): no effect | acylcarnitine levels, especially C16:1 and C18:1 species, vs HFD PBS-treated mice (FIG. 7A) ([16]; soleus muscle homogenates): reduced | complete oxidation of [14C]palmitate to CO2 vs PBS treatment (FIG. 4C) [16, 22]: significantly increased | incomplete oxidation of [14C]palmitate (FIG. 4C) [16, 22]: not significantly increased | amount of IMTG and DAG in muscle vs PBS treatment (FIG. 4A) [17]: does not reduce | citrate synthase activity [18]: 2.91±0.07 μmol/min/mg proteins | malonyl-CoA concentrations (FIG. 6B) [19]: significant reduction | Plasma apelin concentrations, increase [20]: over 2.5 fold

— patent publication US9381229B2, “Pharmaceutical composition for use in the treatment of dysfunction associated with aging” (INSERM (INSTITUT NATIONAL DE LA SANTE ET DE LA RECHERCHE …, priority 2011, dated 2016)
